SMILES strings stand for the structures. Entries after “also recorded” stand apart in the source; their conditions may differ.

Common to all, as to assay type: cell-based, human
One test concerns MLKs. Kind of test: Immunoblotting of IL-17B-induced phosphorylation after CEP-1347 pretreatment. As to conditions: CEP-1347 200 nM pretreatment, then 50 ng/ml rIL-17B 30 mins; AsPC1, BxPC3, MB361, MB468. The method, then: (§1) FIGS. 15A to 15D include charts showing that CEP-1347 inhibits IL-17RB Y447 phosphorylation, ERK1/2 phosphorylation, and aggressiveness of both pancreatic and breast cancer cells. Pancreatic cancer cells (AsPC1 and BxPC3) and breast cancer cells (MB361 and MB468) were transduced with lentiviral shLacZ (control) and lentiviral shMLK4, separately. In comparison to MLK4-knockdown cells, shLacZ-transduced cancer cells were pretreated with CEP-1347 (200 nM), a non-selective inhibitor of MLKs, before adding 50 ng/ml rIL-17B in serum-free conditions for 30 mins. The cell lysates were immunoblotted directly with the indicated antibodies (FIG. 15A). The same cells were measured by RT-qPCR for the cytokine gene expression (n=3) (FIG. 15B), for SACF assay (n=4) (FIG. 15C), and for invasion assay (n=4) (FIG. 15D). All the data are mean±s.d. *P<0.05, **P<0.01 by two-tailed Student's t-test.
Immunoblotting analysis was performed after proteins were separated by gradient SDS-PAGE (HR gradient gel solution, TFUGG420, TOOLS) and transferred to PVDF membrane, with overnight incubation with diluted primary antibody followed by diluted horseradish peroxidase-conjugated anti-rabbit, anti-mouse or anti-goat antibody (Jackson ImmunoResearch) as described (48-50). […] Optical density was determined using the National Institutes of Health ImageJ program.
(In general: A western blot detects proteins with antibodies after separation by electrophoresis.)

Test [1] has as its system pancreatic cancer cells (AsPC1 and BxPC3) and breast cancer cells (MB361 and MB468). Description: RT-qPCR of cytokine gene expression after CEP-1347. The note with it: CEP-1347 200 nM. The method, then: as §1, with “All the data are mean±s.d. *P<0.05, **P<0.01 by two-tailed Student's t-test.” left out
Total RNA from cultured cells and tumor tissue was isolated using Trizol reagent (Thermo Fisher Scientific) and reversely transcribed with Transcriptor First Strand cDNA Synthesis Kit (Roche Life Science) for gene expression analysis according to manufacturer's instructions. Quantitative real-time RT-PCR assay was run on the StepOnePlus system (Applied Biosystems) using KAPA SYBR FAST qPCR Kit (Kapa Biosystems) according to manufacturer's instructions, and data was analyzed by StepOne Software v2.2.2. β-actin mRNA was used as an internal control. […]
On the technique in general: Real-time PCR tracks product formation cycle by cycle.

Test [2] has the same test system. Description: SACF assay with CEP-1347. The method, then:
as §1
Soft agar colony formation assay was performed as described (7). Briefly, 250010000 cells were seeded in a layer of 0.35% agar/complete growth medium over a layer of 0.5% agar/complete growth medium in a 12-well plate. Cell medium containing the indicated concentration of rIL-17B (R&D), DMSO (Sigma-Aldrich), or CEP-1347 (Tocris Bioscience) was replenished every three days. […] Crystal violet-stained colonies greater than 50 μm in size were counted and analyzed objectively by light microscopy.

The test system is the same in test [3]. Kind of test: Invasion assay with CEP-1347. As for the experimental part: as §1
For invasion assay, about 10^4 cells were seeded in the top chamber with Matrigel-coated membrane (24-well BD Falcon HTS Fluoro Block insert; pore size, 8 μm; BD Biosciences) in serum-free media containing rIL-17B, DMSO, or CEP-1347. Medium supplemented with 10% serum was used as a chemoattractant in the lower chamber. After 24- or 48 hrs incubation, the invading cells were fixed with methanol, stained with 4,6-diamidino-2-phenylindole (DAPI) and counted by fluorescence microscopy.

In the case of `CCSCc1ccc2c(c1)c1c3c(c4c5cc(CSCC)ccc5n5c4c1n2[C@H]1C[C@](O)(C(=O)OC)[C@]5(C)O1)CNC3=O` [CEP-1347], in the test with MLKs, the ERK1/2 phosphorylation result is listed as “abrogated; also recorded: inhibits” and the “IL-17RB (Y447) phosphorylation” value is given as “abrogated; also recorded: inhibits”. Moreover, in test [1], the cytokine gene expressions entry is “abrogated”. Also, the “aggressiveness of both pancreatic and breast cancer cells” value in test [2] (CEP-1347 200 nM, SACF and invasion assays) is given as “inhibits”. For the same molecule, in test [2] (CEP-1347, AsPC1, BxPC3, MB361, MB468), the colony formation result is “abrogated”. Also, the “invasion properties of the cancer cells” value in test [3] was “abrogated”.

For the origin of these results see patent US20240124528A1, “ANTAGONIST OF INTERLEUKIN-17B RECEPTOR (IL-17RB) AND USE THEREOF” (Academia Sinica, priority 2020, published 2024).
